Experimental data taken from ChEMBL document CHEMBL1914342, “Synthesis and in vitro EGFR (ErbB1) tyrosine kinase inhibitory activity of 4-N-substituted 6-aryl-7H-pyrrolo[2,3-d]pyrimidine-4-amines” (Eur J Med Chem, 2011).
Calls of active or inactive are those of the source. The rule behind the calls is not given here.

Key:
[1] = target: T1, Epidermal growth factor receptor (Homo sapiens, UniProt P00533); assay: Inhibition of EGF-induced EGFR internalization in human HeLa cells assessed as subcellular localization of receptor at 500 nM measured after 15 to 20 mins post receptor activation by immunostaining-based confocal microscopy analysis; format: cell-based
T1 sequence (P00533 whole entry): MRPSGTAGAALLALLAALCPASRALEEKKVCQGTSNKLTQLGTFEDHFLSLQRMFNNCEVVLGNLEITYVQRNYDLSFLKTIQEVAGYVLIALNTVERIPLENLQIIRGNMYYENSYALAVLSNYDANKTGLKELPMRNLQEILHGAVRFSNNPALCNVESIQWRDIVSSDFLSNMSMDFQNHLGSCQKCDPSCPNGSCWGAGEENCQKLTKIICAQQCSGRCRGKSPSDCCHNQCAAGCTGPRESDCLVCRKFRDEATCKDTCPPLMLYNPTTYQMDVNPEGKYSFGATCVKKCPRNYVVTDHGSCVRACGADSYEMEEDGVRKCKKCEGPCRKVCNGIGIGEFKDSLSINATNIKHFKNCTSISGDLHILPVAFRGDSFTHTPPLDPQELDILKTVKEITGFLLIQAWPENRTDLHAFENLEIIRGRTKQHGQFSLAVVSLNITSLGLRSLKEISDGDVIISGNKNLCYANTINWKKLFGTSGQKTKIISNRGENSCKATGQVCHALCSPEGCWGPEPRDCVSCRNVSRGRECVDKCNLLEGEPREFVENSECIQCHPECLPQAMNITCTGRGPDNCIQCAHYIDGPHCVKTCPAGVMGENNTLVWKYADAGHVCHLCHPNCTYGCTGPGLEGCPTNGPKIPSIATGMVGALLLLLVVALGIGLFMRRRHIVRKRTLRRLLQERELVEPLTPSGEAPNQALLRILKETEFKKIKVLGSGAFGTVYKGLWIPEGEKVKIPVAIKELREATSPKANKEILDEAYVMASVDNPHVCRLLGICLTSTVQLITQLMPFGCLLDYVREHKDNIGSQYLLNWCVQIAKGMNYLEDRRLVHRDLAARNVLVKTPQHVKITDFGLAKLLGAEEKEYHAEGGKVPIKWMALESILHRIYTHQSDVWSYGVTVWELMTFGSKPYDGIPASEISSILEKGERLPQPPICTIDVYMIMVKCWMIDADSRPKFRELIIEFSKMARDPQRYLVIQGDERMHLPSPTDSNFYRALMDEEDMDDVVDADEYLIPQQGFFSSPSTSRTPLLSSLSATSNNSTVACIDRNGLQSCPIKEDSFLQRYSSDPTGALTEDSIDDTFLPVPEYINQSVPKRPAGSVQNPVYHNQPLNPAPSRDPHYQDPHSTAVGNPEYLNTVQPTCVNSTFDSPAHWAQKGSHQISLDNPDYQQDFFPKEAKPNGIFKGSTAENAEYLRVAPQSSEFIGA

[2] = target: T1, Epidermal growth factor receptor; assay: Inhibition of EGFR by Z-LYTE assay

Row | inhibition [1] | IC50 [2] [nM] | Structure (SMILES)
1 | inactive | 3.7 | C[C@@H](Nc1ncnc2[nH]c(-c3ccc(O)cc3)cc12)c1ccccc1
2 | – | 62 | C[C@@H](Nc1ncnc2[nH]c(-c3ccc(O)cc3)cc12)c1ccc(Br)cc1
3 | – | 17 | Cc1ccccc1C(C)Nc1ncnc2[nH]c(-c3ccc(O)cc3)cc12 (racemic)
4 | – | 450 | Cc1ccc([C@@H](C)Nc2ncnc3[nH]c(-c4ccc(O)cc4)cc23)cc1
5 | – | 3.8 | C[C@@H](Nc1ncnc2[nH]c(-c3ccc(O)cc3)cc12)c1ccc(F)cc1
6 | – | 9 | C[C@@H](Nc1ncnc2[nH]c(-c3ccc(O)cc3)cc12)c1cccc(F)c1
7 | – | 4610 | CC(Nc1ncnc2[nH]c(-c3ccc(O)cc3)cc12)c1ccc(C(F)(F)F)cc1 (racemic)
8 | – | 95 | Cc1cccc(C(C)Nc2ncnc3[nH]c(-c4ccc(O)cc4)cc23)c1 (racemic)
9 | – | 29 | C[C@@H](Nc1ncnc2[nH]c(-c3ccc(Br)cc3)cc12)c1ccc(F)cc1

Further lines, the compound ahead of its results:

Row | Structure (SMILES) | inhibition [1] | IC50 [2] [nM]
10 | C[C@@H](Nc1ncnc2[nH]c(-c3ccc(C#N)cc3)cc12)c1ccccc1 | – | 12
11 | C[C@@H](Nc1nc[nH]c2nc(-c3ccccc3)cc1-2)c1ccccc1 | – | 3.3
12 | C[C@@H](Nc1ncnc2[nH]c(-c3ccccc3)cc12)c1ccc(F)cc1 | – | 33
13 | C[C@@H](Nc1ncnc2[nH]c(-c3ccc(C#N)cc3)cc12)c1ccc(F)cc1 | – | 14
14 | Oc1ccc(-c2cc3c(NCc4ccccc4)ncnc3[nH]2)cc1 | – | 3.3
15 | COc1ccc(-c2cc3c(N[C@H](C)c4ccccc4)ncnc3[nH]2)cc1 | – | 4.7
16 | C[C@@H](Nc1ncnc2[nH]c(-c3ccc(F)cc3)cc12)c1ccccc1 | – | 6.6
17 | Oc1ccc(-c2cc3c(NCc4ccccc4F)ncnc3[nH]2)cc1 | – | 45
18 | C[C@@H](Nc1ncnc2[nH]c(-c3ccc(F)cc3)cc12)c1ccc(F)cc1 | – | 27
19 | CC[C@@H](Nc1ncnc2[nH]c(-c3ccc(O)cc3)cc12)c1ccccc1 | – | 4
20 | C[C@@H](Nc1ncnc2[nH]c(-c3ccc(Br)cc3)cc12)c1ccccc1 | – | 63
21 | Oc1ccc(-c2cc3c(NCc4cccc(F)c4)ncnc3[nH]2)cc1 | – | 52
22 | C[C@@H](Nc1ncnc2[nH]c(-c3ccc(O)cc3)cc12)c1ccccc1F | – | 8
23 | Oc1ccc(-c2cc3c(NCc4ccc(F)cc4)ncnc3[nH]2)cc1 | – | 26
24 | CC(Nc1ncnc2[nH]c(-c3ccc(O)cc3)cc12)c1cccc2ccccc12 (racemic) | – | 1010
